Measured values published in ChEMBL document CHEMBL1201862, “PubChem BioAssay data set” (2004).
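Values below derive from 48-hour exposures of cells grown in 96-well plates, with endpoints linearly interpolated between the two concentrations bracketing the appropriate inhibition level. GI50 marks 50% less growth.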 Activity calls are given as the source filed them. Rule as the data show it: active = GI50 up to about 1.1 µM and inactive = higher.

Columns and labels:
Test in all cases: growth of human tumour cells (NCI), 48 h
[1] = test system: A549
[2] = test system: ACHN
[3] = test system: CCRF-CEM
[4] = test system: HOP-62
[5] = test system: HOP-92
[6] = test system: M14
[7] = test system: NCI-H460
[8] = test system: OVCAR-3
[9] = test system: OVCAR-4
[10] = test system: OVCAR-5
[11] = test system: OVCAR-8
[12] = test system: SF-295
[13] = test system: SK-MEL-2
[14] = test system: SK-MEL-5
[15] = test system: SR
[16] = test system: TK-10
[17] = test system: U-251
[18] = test system: UACC-257
[19] = test system: UACC-62
[20] = test system: UO-31

Measured: GI50

CN(CCN(C)CCN(C)C(=O)Cc1ccc(Cl)c(Cl)c1)CCN1CCCC1
inactive: [1] 37 µM | [2] 45.9 µM | [3] 11.6 µM | [4] 25.4 µM | [5] 5.71 µM | [6] 25.9 µM | [7] 26.9 µM | [8] 63.5 µM | [9] 77.6 µM | [10] 37.5 µM | [11] 34.9 µM | [12] 19.6 µM | [13] 16 µM | [14] 15.2 µM | [15] 16.5 µM | [16] 26.1 µM | [17] 19 µM | [18] 5.11 µM | [19] 4.52 µM | [20] 1.92 µM
